Here are results for 6 compounds from patent US20190269715A1, “COMPOSITIONS AND METHOD OF USE OF A-TYPE PROCYANIDINS” (MARS, INCORPORATED, priority 2004, published 2019).

Series [1] concerns the target Leukemia virus reverse transcriptase (Moloney murine leukemia virus, UniProt P03355). As to conditions: cited from earlier work.
In series [2] the test system is rabbit aortic rings. Briefly: Ex vivo endothelium-dependent relaxation of NE pre-constricted rabbit aortic rings. To be noted: for relaxation in pre-contracted aortic rings, dose dependence: FIGS. 1A-1C, 10^-9 to 10^-4 M cumulative; for vasorelaxation, percent relaxation of NE constricted rings: concentration 10^−4M, +/−SE; for relaxant potency compared with positive control acetylcholine: significant at p=0.005 for A1 dimer. As to the method:
Effect of A-type procyanidins on endothelium-dependent relaxation was tested in an ex vivo experiment performed as previously described by Karim et al., J. Nutrl Suppl., 130 (8S): […]-[…] (2000), the relevant portions of which are hereby incorporated herein by reference. The advantage of using this method is that it assesses functional cardiovascular end points. […] In summary, rabbit aortic rings were obtained from male New Zealand White rabbits. Following isolation, the rings were mounted in oxygenated Kreb's buffer, and pre-constricted with NE (10^-6 M). When the tension had reached a steady state, cumulative concentrations of the test compounds were applied (10^-9 to 10^-4 M). A positive control acetylcholine (10^-6M) and a negative control L-NAME were included in the experiment. Use of L-NAME, which is a NO synthase (NOS) inhibitor, allows for differentiating between endothelium dependent and endothelium independent relaxation events. Denuding of aortic rings represent a similar control. 400 U/mL of catalase was added into the aortic bath prior to the addition of each of the test compounds to ensure that the observed effects are not caused by hydrogen peroxide (H202) generation in the culture medium. The relaxation response was measured as a function of the decrease in the tension (g) exerted by the aortic rings over time. Data obtained were expressed as a percent relaxation of the norepinephrine (NE) constricted rings. The same statistical approach as described above was used. Dose response curves were obtained by plotting the average percent relaxation (+/-SE) against the concentrations used.

The test system of series [3] is CD11b on monocytes and neutrophils. The series is described as follows: Leukocyte activation (CD11b expression) by flow cytometry. Type of series: cell-based, human. As to conditions: FIG. 3; 10 min; collagen 0.125-0.5 μg/ml; A1 dimer 0.3 mM, aspirin 100 μM. As for the experimental part:
Platelet-leukocyte conjugate formation was measured in the same stirred samples used to measure platelet aggregation. Sub samples were taken 4 min or 10 min following the addition of agonist and transferred into the appropriate antibody or antibody mixture. These were then incubated in the dark at room temperature for not less than 20 min. Following red cell lysis and a washing procedure the cell suspensions were applied to either the FACScan or the LSRII flow cytometer. Leukocytes were identified by logical gating from dot plots of forward scatter (cell size) and side scatter (cell granularity) profiles acquired with linear amplification. […] Fluorescence parameters were acquired with logarithmic amplification. Platelet monocyte (P/M) and platelet neutrophil (P/N) conjugates were quantified as median CD42a (FITC) fluorescence of the monocyte (P/M mf) or neutrophil population (PIN mf). Leukocyte activation was measured by CD11b (AlexaFluor647) expression (CD11b-M for monocytes and CD11b-N for neutrophils). Platelet activation (P-selectin expression) was measured by CD62P (PE) positivity of the platelets associated with leukocytes as (CD62P-M on P/M and CD62P-N on PIN). […]
Blood was obtained from three different volunteers and the platelet aggregation (4 min) and platelet/leukocyte conjugate formation (10 min) was measured in response to collagen (0, 0.125, 0.25 and 0.5 μg/ml). […]
On the technique in general: A flow cytometer gives signals particle by particle.

Series [4] has as its system platelets in whole blood. The series is described as follows: Collagen-induced platelet aggregation in whole blood (platelet counting). As to conditions: collagen 0.125-0.5 μg/ml, A1 dimer 0.3 mM; for collagen-induced platelet aggregation: FIG. 2, 4 and 10 min, ASA 100 μM. Type of series: cell-based, human. As to the method: Platelet aggregation of A1 dimer [A1D] was measured using a platelet counting technique, and formation of platelet/monocyte conjugates (P/M) and platelet/neutrophil conjugates (PIN) by flow cytometry. In later experiments the activation state of platelets associated with leukocytes (CD62P) was also measured and also the activation state of the leukocytes themselves (CD11b).
A1 dimer [A1D] was dissolved in ethanol. Once in solution, further dilution with saline was possible. Hirudin, (Revasc™) was obtained from Novartis (Basel, Switzerland) and was stored as a 5 mg/ml solution in saline in a glass vial at −20° C. Collagen (Nycomed) was from Axis Shield Diagnostics (Dundee, UK). Concentrations were prepared from the stock solution (1 mg/ml) using the isotonic glucose buffer supplied by the manufacturer. Aspirin (acetyl salicylic acid-ASA), adenosine diphosphate (ADP), platelet activating factor (PAF), arachidonic acid (AA) and epinephrine were from Sigma. Fixing solution consisted of 140 mM NaCl containing 0.16% w/v formaldehyde, 4.6 mM Na2EDTA, 4.5 mM Na2HP04 and 1.6 mM KH2PO4, pH 7.4.
Blood samples were studied using the Multi-Sample Agitator (MSA) produced by the Medical Engineering Unit (University of Nottingham). The MSA is used to maintain blood samples at 37° C. and to agitate small samples of blood at a stir speed of 1,000 rpm as required. […]
Following the 30 min pre-incubation, aliquots of blood (480 μl) were dispensed into small polystyrene tubes each containing a stir bar and stirred for 2 min in the MSA. […] The platelet count in the fixed samples was determined using the UltraFlo-100 Whole Blood Platelet Counter. Platelet aggregation was calculated as the percentage loss of single platelets with reference to the platelet count of the EDTA sample.
Blood was obtained from three different volunteers and the platelet aggregation and platelet/leukocyte conjugate formation was measured in response to collagen (0, 0.125, 0.25 and 0.5 μg/ml). […] Aggregation was measured at 4 and 10 min following agonist addition and platelet/leukocyte conjugate formation only at 10 min. […]

Series [5] has as its system HUVECs. The series is described as follows: MTT reduction, toxic effects on HUVECs. As to conditions: acute effect test. Type of series: cell-based, human. As to the method:
(§1) Test compounds were evaluated with respect to their potential to acutely (2 hours) and chronically (5 doses given in a 24 h period) modulate NO production. Positive controls (acetylcholine and/or histamine) and negative control L-NNMA (NO synthase inhibitor) were included in all experiments. Cell counts and total protein were used to assess intra-assay variation. Potential toxic effects of tested compounds were also monitored (MTT reduction was measured).
(§2) For the acute effect test, HUVECs were incubated with a single dose of A2 dimer and A-type trimer for 2 and 24 hours at concentrations of 100 nM, 1 μM, and 10 μM at 37 C and 5% CO2. No effect was observed on NO production after 2 hours.
(In general: Formazan colour is commonly taken as a measure of viable cells.)

Series [6] concerns human umbilical vein endothelial cell (HUVEC). The series is described as follows: NO production (NOx) in serum-free HUVEC culture. It is filed as cell-based. As for the experimental part: The compounds obtained as described in Example 1, were investigated for their effect on nitric oxide (NO) production and vasorelaxation using serum-free human umbilical vein endothelial cell (HUVEC) culture system in vitro and rabbit aortic ring model ex vivo, respectively. NO production by endothelial cells and relaxation of pre-constricted aortic rings are two main markers for evaluating cardiovascular effects of test compounds.
HUVECs obtained from a single donor were cultured in serum free, low protein (0.5 g/l), antibiotic-free cell culture medium supplemented with essential growth factors, nutrients and minerals. […] The cell culture medium was substituted with apo-transferrin, superoxide dismutase, and catalase to exclude secondary effects of test compounds involving their auto-oxidation mediated hydrogen peroxide formation.
as §1
NO production was evaluated by measuring the total amount of all major nitric oxide end products (NOx, including nitrate, nitrite, nitrosothiols) present in the cell culture medium. […] The amount of NO released from the culture medium was subsequently evaluated by measuring the chemiluminescence emitted during the stoichiometrical reaction between ozone and NO using NO Analyzer (Sievers Instruments, Inc. Boulder, Colo.).
The data presented herein were obtained from three experiments and were expressed as the concentration of NO present (in μmol/l) (as NOx) in the cell culture medium+/−standard deviation (SD). The data were corrected for the NOx intrinsically present in the fully supplemented cell culture medium and normalized with respect ot the volume of media from which the ample was drawn. Data were analyzed using Student's t-test with a 95% level of confidence. P values equal to or less than 0.005 were defined as statistically significant.
as §2
For the chronic effect test, HUVECs were incubated with 5 subsequent doses of test compounds, each for 24 hours. After each 24 hour treatment, culture medium was replaced. A2 dimer and A-type trimer were tested.

In series [7] the test system is platelet/monocyte and platelet/neutrophil conjugates in whole blood. The series is described as follows: Platelet-leukocyte conjugate formation (P/M, P/N) by flow cytometry. It is filed as cell-based, human. To be noted: FIG. 2; 10 min; collagen 0.125-0.5 μg/ml; ASA 100 μM.
Description: Platelet aggregation of A1 dimer [[MUT]] was measured using a platelet counting technique, and formation of platelet/monocyte conjugates (P/M) and platelet/neutrophil conjugates (PIN) by flow cytometry. In later experiments the activation state of platelets associated with leukocytes (CD62P) was also measured and also the activation state of the leukocytes themselves (CD11b). Blood was obtained from healthy volunteers, who denied taking any aspirin or NSAIDS in the previous 10 days. This blood was dispensed into graduated polystyrene tubes that contained hirudin (final concentration 50 μg/ml) and a small volume of the flavanol under investigation or ethanol as control. The final concentration of ethanol in the blood was always 0.3%. […] Platelet-leukocyte conjugate formation was measured in the same stirred samples used to measure platelet aggregation. […] Fluorescence parameters were acquired with logarithmic amplification. Platelet monocyte (P/M) and platelet neutrophil (P/N) conjugates were quantified as median CD42a (FITC) fluorescence of the monocyte (P/M mf) or neutrophil population (PIN mf). Leukocyte activation was measured by CD11b (AlexaFluor647) expression (CD11b-M for monocytes and CD11b-N for neutrophils). Platelet activation (P-selectin expression) was measured by CD62P (PE) positivity of the platelets associated with leukocytes as (CD62P-M on P/M and CD62P-N on PIN). […]
Where [8] appears, read: acute test, single dose, after 2 hours, 100 nM, 1 μM and 10 μM.
Setting [9] is: acute test, single dose, after 24 hours, 1 μM.
The mark [10] stands for this setting: acute test, single dose, after 24 hours, 10 μM, not statistically significant.
[11] abbreviates: typical response of positive control.

Regarding `Oc1cc(O)c2c(c1)O[C@H](c1ccc(O)c(O)c1)[C@@H](O)C2` [(+)-catechin], the “inhibition of Leukemia virus reverse transcriptase activity” value in series [1] is recorded as “inhibit”.
For the compound `Oc1cc(O)c2c(c1)O[C@@]1(c3ccc(O)c(O)c3)Oc3cc(O)c4c(c3[C@@H]2[C@H]1O)O[C@H](c1ccc(O)c(O)c1)[C@@H](O)C4` [A1 dimer, epicatechin-(4β→8; 2β→O→7)-catechin], in series [2], the “relaxation in pre-contracted aortic rings, dose dependence” value (“relaxation … dose dependence” for short) is listed as “dose-dependent relaxation”; the “vasorelaxation, percent relaxation of NE constricted rings” value (“vasorelaxation, percent relaxation” for short) is listed as 93.20+/−3.46%; the “relaxant potency compared with positive control acetylcholine” value is reported as “more potent relaxants that the positive control”. In addition, the “leukocyte activation (CD11b)” value in series [3] is listed as “did not inhibit”. Besides, in series [4], the collagen-induced platelet aggregation result is given as “inhibited”. Moreover, in series [4] (FIG. 3, 4 min), the collagen induced aggregation result is recorded as “inhibited”.
`Oc1cc(O)c2c(c1)O[C@@]1(c3ccc(O)c(O)c3)Oc3cc(O)c4c(c3[C@@H]2[C@H]1O)O[C@H](c1ccc(O)c(O)c1)[C@H](O)C4` [A2 dimer, epicatechin-(4β→8; 2β→O→7)-epicatechin]: the “toxic effects, MTT assay” value in series [5] is listed as “did not have toxic effects”. In series [2], the “relaxation … dose dependence” value is on record as “dose-dependent relaxation”; the “vasorelaxation, percent relaxation” value is given as 85.00+/−2.91%; the “relaxant potency compared with positive control acetylcholine” value was “more potent relaxants that the positive control”. Moreover, in series [6] (setting [8]), the “effect on NO production” value is reported as “No effect”. Moreover, the “effect on NO production” value in series [6] (setting [9]) is listed as “no effect”. In addition, the “effect on NO production” value in series [6] (setting [10]) is listed as “increased NO production above the control level”.
Consider `Oc1cc(O)c2c(c1)O[C@@]1(c3ccc(O)c(O)c3)Oc3cc(O)c4c(c3[C@@H]2[C@H]1O)O[C@H](c1ccc(O)c(O)c1)[C@@H](O)C4c1c(O)cc(O)c2c1CC(c1ccc(O)c(O)c1)C(O)C2` (stereo partly drawn) [A-type trimer], for which the “toxic effects, MTT assay” value in series [5] is “did not have toxic effects”. In addition, in series [2], the “relaxation … dose dependence” value is listed as “dose-dependent relaxation”. Further, the “vasorelaxation, percent relaxation” value in series [2] is given as 56.5+/−16.56%. For the same compound, the “effect on NO production” value in series [6] (setting [8]) is “No effect”; in series [6] (setting [9]), “no effect”; in series [6] (setting [10]), “increased NO production above the control level”; in series [6] (chronic test, 5 subsequent doses, each for 24 hours, p=0.041), “statistically significant increase in NO production”.
For the compound `CC(=O)Oc1ccccc1C(=O)O` [ASA, acetyl salicylic acid, reference compound], in series [3], the “leukocyte activation (CD11b)” value is on record as “no effect”. In series [7], the “platelet/monocyte conjugates (P/M)” value is “effectively inhibited” and the “platelet/neutrophil conjugates (P/N)” value is listed as “effectively inhibited”. For the same compound, the collagen-induced platelet aggregation result in series [4] is recorded as “effectively inhibited”.
As for `CC(=O)OCC[N+](C)(C)C` [Acetylcholine, acetylcholine, reference compound], in series [2] (setting [11]), the “concentration producing a relaxation response” value was 10^−7 M and the “concentration reaching maximal relaxation” value is given as 10^−6 M.
